Assay results as given in US7868005B2, “Pyrazinyl substituted piperazine-piperidines with CXCR3 antagonist activity” (Schering Corporation, priority 2005, dated 2011).

Each molecule was assayed against T1, human CXCR3 (N-delta 4) (Homo sapiens, UniProt P49682) (assay: Human CXCR3 (N-delta 4) Scintillation Proximity Assay (SPA), [125I] IP-10 binding to Ba/F3-hCXCR3 membranes). Conditions: IC50 rating, Table 1; read-out: IC50.
T1 construct: CD8 leader (N); Flag; expressed in transfected cells; membranes prepared
T1 sequence (P49682 5-368 limits assumed): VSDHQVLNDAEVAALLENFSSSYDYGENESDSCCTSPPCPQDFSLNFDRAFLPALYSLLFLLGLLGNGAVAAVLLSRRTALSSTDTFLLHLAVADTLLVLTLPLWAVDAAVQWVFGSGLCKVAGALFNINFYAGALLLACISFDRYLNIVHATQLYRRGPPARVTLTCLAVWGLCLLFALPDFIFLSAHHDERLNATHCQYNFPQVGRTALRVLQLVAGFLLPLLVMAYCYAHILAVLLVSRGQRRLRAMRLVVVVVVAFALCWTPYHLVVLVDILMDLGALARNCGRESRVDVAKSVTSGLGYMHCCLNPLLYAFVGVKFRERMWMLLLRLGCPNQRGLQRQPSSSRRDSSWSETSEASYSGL

Structure (SMILES) | IC50 [nM]
CC[C@H]1CN(c2nc(N)c(C(=O)NCCO)nc2Cl)CCN1C1CCN(C(=O)c2cc(F)c(F)cc2N)CC1 [compound 345] | 25 to 100
CC[C@H]1CN(c2nc(N)c(C(=O)NCCO)nc2Cl)CCN1C1CCN(C(=O)c2ccc(C#CC(C)(C)O)cc2)CC1 [compound 346] | 25 to 100
CC[C@H]1CN(c2nc(N)c(C(=O)NCCO)nc2Cl)CCN1C1CCN(C(=O)c2ccc(Cl)cc2CCNS(C)(=O)=O)CC1 [compound 347] | 25 to 100
CC[C@H]1CN(c2nc(N)c(C(=O)NCCO)nc2Cl)CCN1C1CCN(C(=O)c2ccc(F)c(F)c2N)CC1 [compound 348] | 25 to 100
CC[C@H]1CN(c2nc(N)c(C(N)=O)nc2Cl)CCN1C1CCN(C(=O)c2ccc(Cl)cc2)CC1 [compound 349] | 25 to 100
CC[C@H]1CN(c2nc(N)c(C(=O)NC)nc2Cl)CCN1C1CCN(C(=O)c2ccc(OC(F)(F)F)cc2)CC1 [compound 350] | 25 to 100
CC[C@H]1CN(c2nc(N)c(C(=O)NCCO)nc2Cl)CCN1C1CCN(C(=O)c2ccc(F)c(F)c2F)CC1 [compound 351] | 25 to 100
CC[C@H]1CN(c2nc(N)c(C(=O)NCCO)nc2Cl)CCN1C1CCN(C(=O)c2ccc(Cl)cc2CCNC(C)=O)CC1 [compound 352] | > 100
CC[C@H]1CN(c2nc(N)c(C(=O)NC)nc2Cl)CCN1C1CCN(C(=O)c2ccc(-n3cccn3)cc2)CC1 [compound 353] | > 100
CC[C@H]1CN(c2nc(N)c(C(=O)NC)nc2Cl)CCN1C1CCN(C(=O)c2ccc(-c3cnco3)cc2)CC1 [compound 354] | > 100
CC[C@H]1CN(c2nc(N)c(C(=O)NCCN/C(N)=N/C#N)nc2Cl)CCN1C1CCN(C(=O)c2ccc(Cl)cc2)CC1 [compound 355] | > 100
CC[C@H]1CN(c2nc(N)c(C(=O)NC[C@@H](O)CO)nc2Cl)CCN1C1CCN(C(=O)c2ccc(Cl)cc2)CC1 [compound 356] | > 100
CC[C@H]1CN(c2nc(N)c(C(N)=O)nc2Cl)CCN1C1CCN(C(=O)c2ccc(Cl)cc2CC(N)=O)CC1 [compound 357] | > 100
CC[C@H]1CN(c2nc(N)c(C(=O)NN)nc2Cl)CCN1C1CCN(C(=O)c2ccc(Cl)cc2)CC1 [compound 358] | > 100
CC[C@H]1CN(c2nc(N)c(C(=O)NC[C@H](O)CO)nc2Cl)CCN1C1CCN(C(=O)c2ccc(Cl)cc2)CC1 [compound 359] | > 100
CC[C@H]1CN(c2nc(N)c(C(=O)NCCO)nc2Cl)CCN1C1CCN(C(=O)c2ccc(F)c(F)c2NCc2ccccc2)CC1 [compound 360] | > 100
CC[C@H]1CN(c2nc(N)c(C(=O)NCCO)nc2Cl)CCN1C1CCN(C(=O)c2ccc(OC(F)(F)F)cc2O)CC1 [compound 361] | > 100
CC[C@H]1CN(c2nc(N)c(C(=O)NCCO)nc2Cl)CCN1C1CCN(C(=O)c2ccc(Cl)cc2OC)CC1 [compound 362] | > 100
CC[C@H]1CN(c2nc(N)c(C(=O)NCCO)nc2Cl)CCN1C1CCN(C(=O)c2cc(F)c(F)cc2NC(=O)c2cc(F)c(F)cc2N)CC1 [compound 363] | > 100
CC[C@H]1CN(c2nc(N)c(C(=O)NC)nc2Cl)CCN1C1CCN(C(=O)c2ccc(Cl)c(NS(C)(=O)=O)c2)CC1 [compound 364] | > 100
CC[C@H]1CN(c2nc(N)c(C(=O)NC)nc2Cl)CCN1C1CCN(C(=O)c2ccc(Cl)c(N)c2)CC1 [compound 365] | > 100

Structure (SMILES) | IC50 [nM]
CC[C@H]1CN(c2nc(N)c(C(=O)NC)nc2Cl)CCN1C1CCN(C(=O)c2ccc(Cl)cc2NC)CC1 [compound 366] | > 100
CC[C@H]1CN(c2nc(N)c(C(=O)NC)nc2Cl)CCN1C1CCN(C(=O)c2c(C)cc(OCc3ccccc3)cc2C)CC1 [compound 367] | > 100
CC[C@H]1CN(c2nc(N)c(C(=O)NC)nc2Cl)CCN1C1CCN(C(=O)C2Cc3ccccc3C2)CC1 [compound 368] | > 100
CC[C@H]1CN(c2nc(N)c(C(=O)NC)nc2Cl)CCN1C1CCN(C(=O)C2(N)CCc3ccccc3C2)CC1 (some centres unmarked) [compound 369] | > 100
CC[C@H]1CN(c2nc(N)c(C(=O)NC)nc2Cl)CCN1C1CCN(C(=O)C2CCc3ccccc3C2)CC1 (some centres unmarked) [compound 370] | < 25
CC[C@H]1CN(c2nc(N)c(C(=O)NC)nc2Cl)CCN1C1CCN(C(=N)c2ccc(Cl)cc2)CC1 [compound 371] | < 25
CC[C@H]1CN(c2nc(N)c(C(=O)OC)nc2Cl)CCN1C1CCN(C(=O)c2ccc(Cl)cc2C(C)C#N)CC1 (some centres unmarked) [compound 372] | > 100
CC[C@H]1CN(c2nc(N)c(C(=O)NNC(C)=O)nc2Cl)CCN1C1CCN(C(=O)c2ccc(Cl)cc2)CC1 [compound 373] | > 100
CC[C@H]1CN(c2nc(N)c(C(=O)NCCO[Si](C(C)C)(C(C)C)C(C)C)nc2Cl)CCN1C1CCN(Cc2ccc(F)c(F)c2N2CC[C@H](O)C2)CC1 [compound 374] | > 100
CC[C@H]1CN(c2nc(N)c(C(N)=O)nc2Cl)CCN1C1CCN(Cc2ccc(Cl)cc2C2COC(=O)O2)CC1 (some centres unmarked) [compound 375] | 25 to 100
CC[C@H]1CN(c2nc(N)c(C(N)=O)nc2Cl)CCN1C1CCN(Cc2ccc(Cl)cc2NC(=O)C(C)O)CC1 (some centres unmarked) [compound 377] | 25 to 100
CC[C@H]1CN(c2nc(N)c(C(N)=O)nc2Cl)CCN1C1CCN(Cc2ccc(Cl)cc2C(O)C(=O)N(C)C)CC1 (some centres unmarked) [compound 378] | < 25
CC[C@H]1CN(c2ncc(C(N)=O)nc2OC)CCN1C1CCN(C(=O)c2ccc(Cl)cc2)CC1 [compound 379] | > 100
CC[C@H]1CN(c2nc(N)c(C(N)=O)nc2Cl)CCN1C1CCN(Cc2ccc(Cl)cc2C2NC(=O)N(C)C2=O)CC1 (some centres unmarked) [compound 380] | > 100
CC[C@H]1CN(c2nc(N)c(C(N)=O)nc2Cl)CCN1C1CCN(Cc2ccc(Cl)cc2C(N)C(N)=O)CC1 (some centres unmarked) [compound 381] | 25 to 100
CC[C@H]1CN(c2nc(N)c(C(N)=O)nc2Cl)CCN1C1CCN(Cc2ccc(Cl)cc2C(NC(C)=O)C(N)=O)CC1 (some centres unmarked) [compound 382] | > 100
CC[C@H]1CN(c2ncc(C(N)=O)nc2NC)CCN1C1CCN(C(=O)c2ccc(Cl)cc2)CC1 [compound 383] | > 100
CC[C@H]1CN(c2ncc(C(=O)NC)nc2NC)CCN1C1CCN(C(=O)c2ccc(Cl)cc2)CC1 [compound 384] | > 100
CC[C@H]1CN(c2nc(N)c(C(N)=O)nc2Cl)CCN1C1CCN(Cc2ccc(Cl)cc2C2CNC(=O)O2)CC1 (some centres unmarked) [compound 385] | < 25
CC[C@H]1CN(c2nc(N)c(C(N)=O)nc2Cl)CCN1C1CCN(Cc2ccc(Cl)cc2N2CCN(C)C2=O)CC1 [compound 386] | < 25
CC[C@H]1CN(c2ncc(C(N)=O)nc2Br)CCN1C1CCN(C(=O)c2ccc(Cl)cc2)CC1 [compound 387] | < 25

Structure (SMILES) | IC50 [nM]
CC[C@H]1CN(c2ncc(C(N)=O)nc2C)CCN1C1CCN(C(=O)c2ccc(Cl)cc2)CC1 [compound 388] | < 25
CC[C@H]1CN(c2nc(N)c(C(=O)NC(=N)NC)nc2Cl)CCN1C1CCN(Cc2ccc(Cl)c(F)c2)CC1 [compound 389] | < 25
CC[C@H]1CN(c2nc(N)c(C(=O)NC(=N)NC)nc2Cl)CCN1C1CCN(Cc2ccc(Cl)cc2)CC1 [compound 390] | < 25
CC[C@H]1CN(c2nc(N)c(C(=O)NC(=N)NC)nc2Cl)CCN1C1CCN(Cc2ccc(OC(F)(F)F)cc2)CC1 [compound 391] | < 25
CC[C@H]1CN(c2nc(N)c(C(=O)NC(=N)NC)nc2Cl)CCN1C1CCN(C(=O)c2ccc(Cl)c(F)c2)CC1 [compound 392] | < 25
CC[C@H]1CN(c2nc(N)c(C(=O)NC(=N)NC)nc2Cl)CCN1C1CCN(C(=O)c2ccc(Cl)cc2)CC1 [compound 393] | < 25
CC[C@H]1CN(c2nc(N)c(C(=O)NCCO)nc2Cl)CCN1C1CCN(Cc2ccc(F)c(OC)c2)CC1 [compound 394] | < 25
CC[C@H]1CN(c2ncc(C(N)=O)nc2Cl)CCN1C1CCN(Cc2ccc(Cl)cc2[C@H](O)C(N)=O)CC1 [compound 396] | < 25
CC[C@H]1CN(c2nc(N)c(C(=O)NCCO)nc2Cl)CCN1C1CCN(Cc2ccc(OC)c(F)c2)CC1 [compound 397] | < 25
CC[C@H]1CN(c2nc(N)c(C(=O)NC(=N)NC)nc2Cl)CCN1C1CCN(C(=O)c2ccc(F)c(F)c2)CC1 [compound 398] | < 25
CC[C@H]1CN(c2nc(N)c(C(=O)NC(=N)NC)nc2Cl)CCN1C1CCN(C(=O)c2ccc(C#N)cc2)CC1 [compound 399] | < 25
CC[C@H]1CN(c2nc(N)c(C(N)=O)nc2Cl)CCN1C1CCN(Cc2ccc(Cl)cc2S(N)(=O)=O)CC1 [compound 401] | < 25
CC[C@H]1CN(c2nc(N)c(C(=O)NC(=N)NC)nc2Cl)CCN1C1CCN(C(=O)c2ccc(OC(F)(F)F)cc2)CC1 [compound 402] | < 25
CC[C@H]1CN(c2nc(N)c(C(N)=O)nc2Cl)CCN1C1CCN(Cc2ccc(Cl)cc2C2NC(=O)NC2=O)CC1 (some centres unmarked) [compound 405] | > 100
CC[C@H]1CN(c2nc(N)c(C(N)=O)nc2Cl)CCN1C1CCN(Cc2ccc(Cl)cc2C2OC(=O)N(C)C2=O)CC1 (some centres unmarked) [compound 406] | > 100
CC[C@H]1CN(c2nc(N)c(C(N)=O)nc2Cl)CCN1C1CCN(Cc2ccc(Cl)cc2C2OC(=O)NC2=O)CC1 (some centres unmarked) [compound 407] | > 100
CC[C@H]1CN(c2ncc(C(N)=O)nc2C)CCN1C1CCN(C(=O)c2ccc(F)c(F)c2)CC1 [compound 408] | 25 to 100
CC[C@H]1CN(c2ncc(C(N)=O)nc2Cl)CCN1C1CCN(C(=O)c2ccc(Cl)c(OCCS(C)(=O)=O)c2)CC1 [compound 409] | < 25
CC[C@H]1CN(c2nc(N)c(C(=O)NCCO)nc2Cl)CCN1C1CCN(Cc2ccc(Cl)c(OCCS(C)(=O)=O)c2)CC1 [compound 410] | < 25
CC[C@H]1CN(c2nc(N)c(C(N)=O)nc2Cl)CCN1C1CCN(Cc2ccc(Cl)c(OCCS(C)(=O)=O)c2)CC1 [compound 411] | < 25
